# Columns and labels:
# [1] = Solid state stability under humid conditions (40° C./75% RH and 25° C./60% RH, two weeks); type: physicochemical
# Experimental: Stability of Compound 1 Hydrochloride Forms A, B, C, and D was evaluated under humid conditions. Samples of Forms A, B, C, and D were stored at 40° C./75% RH and 25° C./60% RH for a period of two weeks (loosely capped glass vials with approx. 200 mg solid). Solids were then re-analyzed using methods described herein. A summary of the results is provided in Table 12 (after storage at 25° C./60% RH) and Table 13 (after storage at 40° C./75% RH).
# [2] = Dynamic Vapor Sorption (DVS) analysis with XRPD after equilibration; type: physicochemical; conditions: for moisture/water content on initial equilibration at 50% RH (DVS): beginning of analysis; for reversibility of water uptake (DVS): as relative humidity decreased
# Experimental: Sorption isotherms were obtained using a Hiden Isochema moisture sorption analyzer (model IGAsorp), controlled by IGAsorp Systems Software V6.50.48. The sample was maintained at a constant temperature (25° C.) by the instrument controls. The humidity was controlled by mixing streams of dry and wet nitrogen, with a total flow of 250 mL·min^−1. The instrument was verified for relative humidity content by measuring three calibrated Rotronic salt solutions (10%, 50%, 88%). The weight change of the sample was monitored as a function of humidity by a microbalance (accuracy+/−0.005 mg). A defined amount of sample was placed in a tared mesh stainless steel basket under ambient conditions. A full experimental cycle typically consisted of three scans (sorption, desorption and sorption) at a constant temperature (25° C.) and 10% RH intervals over a 0-90% range (60 minutes for each humidity level). […]
# This water content decreased as relative humidity decreased in the first desorption cycle.
# The solid absorbed 3.39% water over the humidity range. […] The profile was similar to that of Form C in Example 7.2.
# [3] = Aqueous solubility of salt forms (25° C., 1, 4, 24 h); conditions: deionized water; for XRPD: isolated solids
# Experimental: Aqueous solubility of certain salt forms was assessed. Each solid (100 mg) was charged into a crystallization tube. Deionized water (1 mL) was added to each tube to give a suspension. The mixtures were equilibrated at 25° C. for 24 hours with sampling after 1 and 4 hours' equilibration. Solids were isolated and XRPD analysis obtained.
# [4] = Drying studies of Compound 1 Hydrochloride (XRPD, TGA); type: physicochemical
# Experimental: Compound 1 Hydrochloride Form A was then subjected to drying under various conditions.
# Drying studies of Compound 1 Hydrochloride Form A (Type 1 Lot) were performed.
# Variability in the drying profiles of different lots of Compound 1 Hydrochloride were noted, particularly with regards to the transition between Form A and Form C. The variable behavior appeared to depend upon the nature of the input Form A batch (e.g., how it was generated and then conditioned, if at all, prior to drying, and/or if excess hydrochloric acid was present).
# Concentrated HCl (154 μL, 1 eqiuv) was added which clarified the suspension to a deep orange solution. The mixture was equilibrated for 30 minutes before cooling gradually to room temperature. A thin yellow suspension resulted. The solvent volume was reduced by 50% which thickened the suspension. The suspension was matured overnight, following which the solid was filtered to isolate the solids. The solid was air dried for ˜30 minutes giving a yellow solid (damp mass: 1.24 g; pH measured at 5.0). The XRPD pattern of the damp solid corresponded with Compound 1 Hydrochloride Form H. Analysis of the damp solid by DSC and TGA indicated a water content of 8.2%, which was fairly labile up ˜75° C.
# Compound 1 Hydrochloride Form H was then subjected to a drying study under various conditions.
# The solids were further subjected to prolonged drying.
# [5] = Form stability on standing on bench or at 40° C./75% RH (XRPD); type: physicochemical
# Experimental: Two samples of the solid were stored under glass with loose fitting lids on a bench and at 40° C./75% RH for a period of 5 days and re-analyzed by XRPD.
# In an additional experiment, a sample of Form F was left to stand on a bench in a loosened vial for 48 hours.
# [6] = Dry in vacuo at 25° C., T = 4 h
# [7] = Dry in vacuo at 25° C., T = 24 h
# [8] = Dry in vacuo at 25° C., T = 96 h
# [9] = Dry in vacuo at 25° C., T = 120 h
# [10] = Dry in vacuo at 45° C., T = 4 h
# [11] = Dry in vacuo at 45° C., T = 24 h
# [12] = Dry in vacuo at 45° C., T = 96 h
# [13] = Dry in vacuo at 45° C., T = 120 h
# [14] = Dry in vacuo at 70° C., T = 4 h
# [15] = Dry in vacuo at 70° C., T = 24 h
# [16] = Dry in vacuo at 70° C., T = 96 h
# [17] = Dry in vacuo at 70° C., T = 120 h
# [18] = Dry in vacuo at 25° C., T = 48 h
# [19] = Form C prepared from Form A, Type 1 Lot
# [20] = Form C prepared from Form A, Type 2 Lot
# [21] = under glass with loose fitting lid, 5 days
molecule,measurement,setting,value
COC(=O)c1ccc2c(c1)NC(=O)/C2=C(\Nc1ccc(N(C)C(=O)CN2CCN(C)CC2)cc1)c1ccccc1.Cl [Compound 1 Hydrochloride Form D],TGA After Storage: further loss above/post 200° C.,[1]; 25° C./60% RH,1.51% post 200 °C
same,XRPD After Storage,[1]; 25° C./60% RH,Form D
same,TGA After Storage: further loss above/post 200° C.,[1]; 40° C./75% RH,1.68% post 200 °C
same,XRPD After Storage,[1]; 40° C./75% RH,Form D
COC(=O)c1ccc2c(c1)NC(=O)/C2=C(\Nc1ccc(N(C)C(=O)CN2CCN(C)CC2)cc1)c1ccccc1.Cl [Compound 1 Hydrochloride Form B],XRPD analysis following equilibration at 0% RH,[2]; 0% RH,Form F
same,moisture/water content on initial equilibration at 50% RH (DVS),[2],4.2%
same,XRPD analysis following equilibration at 90% RH,[2]; 90% RH,Form H
same,level of water reached in initial sorption step after 70% RH (DVS),[2]; above 70% RH,17.3%
same,reversibility of water uptake (DVS),[2],reversible
same,loss of water on the initial desorption step (DVS),[2]; initial desorption step,~1.5%
same,water content after the second desorption step (DVS),[2]; second desorption step,1.1%
same,TGA After Storage: further loss above/post 200° C.,[1]; 25° C./60% RH,1.41% post 200 °C
same,TGA After Storage: weight reduction to 60° C.,[1]; 25° C./60% RH,Weight reduction of 1.69% to 60 °C
same,XRPD After Storage,[1]; 25° C./60% RH,Form B
same,TGA After Storage: further loss above/post 200° C.,[1]; 40° C./75% RH,followed by further loss of 1.4%
same,TGA After Storage: weight reduction to 60° C.,[1]; 40° C./75% RH,Weight reduction of 1.0% to 60 °C
same,XRPD After Storage,[1]; 40° C./75% RH,Form H
Maleate,Solubility,[3]; t = 1 h,12.50 mg/mL
same,pH,[3]; t = 1 h,6.35
same,Solubility,[3]; t = 4 h,12.39 mg/mL
same,Solubility,[3]; t = 24 h,9.45 mg/mL
same,pH,[3]; t = 24 h,6.40
COC(=O)c1ccc2c(c1)NC(=O)/C2=C(\Nc1ccc(N(C)C(=O)CN2CCN(C)CC2)cc1)c1ccccc1.Cl [Compound 1 Hydrochloride Form H],TGA (%),[4]; [6],0%
same,XRPD,[4]; [6],Form F
same,XRPD,[4]; [7],Form F
same,TGA (%),[4]; [8],0%
same,XRPD,[4]; [8],Form F
same,XRPD,[4]; [9],Form F
same,TGA (%),[4]; [10],0%
same,XRPD,[4]; [10],Form F
same,XRPD,[4]; [11],Form F
same,TGA (%),[4]; [12],0%
same,XRPD,[4]; [12],Form F
same,XRPD,[4]; [13],Form F
same,TGA (%),[4]; [14],0%
same,XRPD,[4]; [14],Form F
same,XRPD,[4]; [15],Form F
same,TGA (%),[4]; [16],0%
same,XRPD,[4]; [16],Form F
same,XRPD,[4]; [17],Form F
same,TGA (%),"[4]; T = 0, before drying",8.24%
same,XRPD,"[4]; T = 0, before drying",Form H
COC(=O)c1ccc2c(c1)NC(=O)/C2=C(\Nc1ccc(N(C)C(=O)CN2CCN(C)CC2)cc1)c1ccccc1.Cl [Compound 1 Hydrochloride Form A (Type 2 Lot)],XRPD analysis following equilibration at 0% RH,[2]; 0% RH,mixture of Form A and Form C
same,moisture/water content on initial equilibration at 50% RH (DVS),[2],6.39%
same,XRPD analysis following equilibration at 90% RH,[2]; 90% RH,predominantly Form A
same,uptake of water following initial equilibration at 50% RH during first desorption cycle (DVS),[2]; first desorption cycle,−7%
same,"water absorbed over the humidity range, first sorption cycle (DVS)",[2]; first sorption cycle,8.66%
same,TGA (%),[4]; [6],9.96%
same,TGA (%),[4]; [7],7.09%
same,XRPD,[4]; [7],Form A
same,TGA (%),[4]; [18],6.61%
same,XRPD,[4]; [18],Form A
same,TGA (%),[4]; [9],3.45%
same,TGA (%),[4]; [10],9.89%
same,TGA (%),[4]; [11],6.93%
same,TGA (%),"[4]; Dry in vacuo at 45° C., T = 48 h",6.63%
same,TGA (%),[4]; [13],2.27%
same,TGA (%),[4]; [14],8.93%
same,TGA (%),[4]; [15],6.49%
same,TGA (%),"[4]; Dry in vacuo at 70° C., T = 48 h",6.68%
same,TGA (%),[4]; [17],2.17%
same,TGA (%),"[4]; T = 0, before drying",14.83%
same,level of hydration after extended drying,"[4]; summary of drying studies, Table 10",reduced to 2-3%
same,XRPD After Storage,[1]; 25° C./60% RH,Form A/C
same,XRPD After Storage,[1]; 40° C./75% RH,amorphous
COC(=O)c1ccc2c(c1)NC(=O)C2=C(Nc1ccc(N(C)C(=O)CN2CCN(C)CC2)cc1)c1ccccc1.Cl [Compound 1 Hydrochloride Form F],behaviour on prolonged drying,"[4]; all drying temperatures (25, 45, 70° C.)",robust toward further changes
same,form after standing on a bench in a loosened vial (XRPD and TGA),[5]; 48 hours,fully converted into Form H
COC(=O)c1ccc2c(c1)NC(=O)/C2=C(\Nc1ccc(N(C)C(=O)CN2CCN(C)CC2)cc1)c1ccccc1.Cl [Compound 1 Hydrochloride Form C],XRPD analysis following equilibration at 0% RH,[2]; 0% RH,remained Form C
same,XRPD analysis following equilibration at 90% RH,[2]; 90% RH,Form A
same,water absorbed above 70% RH (DVS),[2]; [19],8.38%
same,"water absorbed up to 70% RH, initial sorption step (DVS)",[2]; [19],1.44%
same,water content reached over the humidity range on second sorption cycle (DVS),[2]; [19],10%
same,XRPD analysis following equilibration at 0% RH,[2]; [20],remained Form C
same,XRPD analysis following equilibration at 90% RH,[2]; [20],remained Form C
same,water absorbed over the humidity range (DVS),[2]; [20],3.39%
same,water absorbed up to 80% RH (DVS),[2]; [20],1.55%
same,reversibility of water uptake (DVS),[2],reversible
same,"form after equilibration in water (damp solid, XRPD)",[4]; equilibrated in water for 48 hours,readily converted to Form A
same,TGA After Storage: further loss above/post 200° C.,[1]; 25° C./60% RH,0.98% post 200 °C
same,XRPD After Storage,[1]; 25° C./60% RH,Form C
same,TGA After Storage: further loss above/post 200° C.,[1]; 40° C./75% RH,1.0% post 200 °C
same,XRPD After Storage,[1]; 40° C./75% RH,Form C
same,XRPD after storage at 40° C./75% RH,[5]; [21],no change from Form C
same,XRPD after storage on a bench,[5]; [21],no change from Form C
"COC(=O)c1ccc2c(c1)NC(=O)/C2=C(\Nc1ccc(N(C)C(=O)CN2CCN(C)CC2)cc1)c1ccccc1.Cl [HCl (Form A, Type 2 Lot)]",Solubility,[3]; t = 1 h,46.11 mg/mL
same,pH,[3]; t = 1 h,5.22
same,XRPD,[3]; t = 1 h,Form A
same,Solubility,[3]; t = 4 h,43.78 mg/mL
same,XRPD,[3]; t = 4 h,Form A
same,Solubility,[3]; t = 24 h,40.58 mg/mL
same,pH,[3]; t = 24 h,5.25
same,XRPD,[3]; t = 24 h,Form A
Tosylate,Solubility,[3]; t = 1 h,2.07 mg/mL
same,pH,[3]; t = 1 h,6.46
same,Solubility,[3]; t = 4 h,2.02 mg/mL
same,Solubility,[3]; t = 24 h,2.39 mg/mL
same,pH,[3]; t = 24 h,6.66
"COC(=O)c1ccc2c(c1)NC(=O)/C2=C(\Nc1ccc(N(C)C(=O)CN2CCN(C)CC2)cc1)c1ccccc1.Cl [HCl (Form A, Type 1 Lot)]",Solubility,[3]; t = 1 h,70.37 mg/mL
same,pH,[3]; t = 1 h,3.34
same,Solubility,[3]; t = 4 h,50.54 mg/mL
same,Solubility,[3]; t = 24 h,52.88 mg/mL
same,pH,[3]; t = 24 h,3.28
